Test results taken from patent US20200383985A1, “Inhibitors of Protease Activated Receptor-2” (Endosome Therapeutics, Inc., priority 2017, published 2020).

How the values were obtained:
mice = assay: Paw inflammation after intraplantar injection (paw thickness, neutrophil infiltration); format: in vivo, mouse; conditions: WT mice; for paw thickness after intraplantar protease: calipers
From the text: Proteases may induce pain by activating PAR2 on nociceptors or other cell types. To determine the contribution of PAR2 on nociceptors, mice were bred expressing PAR2 flanked by LoxP sites (Par2^lox/lox) with mice expressing Cre recombinase targeted to nociceptors using the NaV1.8 promoter (Scn10a) (Stirling L. C. et al., Pain 2005, 113(1-2): 27-36). Par2-NaV1.8 mice lacked immunoreactive PAR2 in NaV1.8-positive nociceptors (FIG. 1A). Whereas 31% (20 of 65) of small-diameter (<25 μm) DRG neurons from WT mice responded to trypsin (100 nM) with increased [Ca^2+]i, only 6% (3 of 51) of neurons from Par2-NaV1.8 mice responded (FIGS. 1B, 11A, and 11B). Nociception was assessed by measuring withdrawal responses to stimulation of the plantar surface of the hindpaw with von Frey filaments. […] In Par2-NaV1.8 mice, the initial responses were maintained, but responses after 120 min were diminished. […] Trypsin-induced inflammation was markedly diminished in Par2-NaV1.8 mice.
Mice were acclimatized to the experimental apparatus, room and investigator for 1-2 h on 2 successive days before studies. Investigators were blinded to the test agents. Mice were sedated (5% isoflurane) for intraplantar injections. Dy4a, Dy4 inact, PS2, PS2 inact (all 50 μM) or vehicle (0.2% DMSO in 0.9% NaCl) (10 μl) was injected into the left hindpaw. After 30 min, trypsin (10 or 80 nM), CS (2.5 or 5 μM) or NE (1.2 or 3.9 μM) (all 10 μl) was injected into the same hindpaw. Mechanical nociceptive responses were evaluated by examining paw withdrawal to stimulation of the plantar surface of the hind-paw with calibrated von Frey filaments. von Frey scores were measured in triplicate to establish a baseline for each animal on the day before experiments, and were then measured for up to 4 h after protease administration. To assess edema, paw thickness was measured at the site of injection between the plantar and the dorsal surfaces of the paw using digital calipers. […] Ly6G/Ly6c was detected with goat anti-rat horseradish peroxidase conjugated multimer incubated for 16 min.

PAR2-RLuc8/βARR2-YFP = molecular target: T1, PAR2-RLuc8/βARR2-YFP (Homo sapiens, UniProt P55085); assay: BRET assay of βARR2 recruitment in DRG neurons; format: cell-based; conditions: mouse DRG neurons
T1 construct: expressed in transfected cells; host or cells: mouse (C57BL/6) DRG neurons, nucleofection
T1 sequence (P55085 26-397): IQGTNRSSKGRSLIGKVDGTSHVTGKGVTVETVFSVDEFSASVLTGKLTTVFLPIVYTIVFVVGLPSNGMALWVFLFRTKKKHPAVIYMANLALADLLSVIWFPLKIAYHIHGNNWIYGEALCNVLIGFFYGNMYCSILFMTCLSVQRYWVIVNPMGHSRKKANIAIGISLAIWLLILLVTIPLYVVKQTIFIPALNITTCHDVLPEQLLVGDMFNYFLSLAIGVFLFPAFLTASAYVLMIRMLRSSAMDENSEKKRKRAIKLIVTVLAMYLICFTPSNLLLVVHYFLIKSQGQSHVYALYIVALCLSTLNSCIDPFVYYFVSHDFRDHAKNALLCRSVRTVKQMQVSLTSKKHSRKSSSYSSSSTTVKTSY
Description: To assess endocytosis of PAR2 in nociceptors, mouse (m) PAR2-GFP was transfected in to mouse DRG neurons. In vehicle-treated neurons, mPAR2-GFP was detected at the plasma membrane and in intracellular compartments that may correspond to stores of PAR2 in the Golgi apparatus (FIG. 4A) (Jensen D. D., et al. J Biol Chem. 2016, 291(21): 11285-11299). Trypsin, but not NE or CS (100 nM, 30 min), induced mPAR2-GFP endocytosis (FIG. 4A, B). Dy4, but not Dy4 inact, inhibited trypsin-induced endocytosis of mPAR2-GFP (FIG. 4C). To determine whether PAR2 recruits βARRs, which mediate endocytosis, Bioluminescence Resonance Energy Transfer (BRET) sensors were expressed for PAR2-RLuc8 (donor) and βARR2-YFP (acceptor) in mouse DRG neurons. Trypsin, but not NE or CS, increased PAR2-RLuc8/βARR2-YFP BRET (FIG. 4D).
DRG were collected from C57BL/6 mice and Sprague-Dawley rats (all levels). […]
Mouse DRG neurons were equilibrated in HBSS-HEPES (30 min, 37° C.), and incubated with the Renilla luciferase substrate coelenterazine h (NanoLight Technologies) (5 μM, 5 min). BRET ratios were measured at 475±30 nm and 535±30 nm using a CLARIOstar Monochronometer Microplate Reader (BMG LabTech) before and after challenge with trypsin (10 nM), NE (100 nM) or CS (100 nM). Data are presented as a BRET ratio, calculated as the ratio of YFP to RLuc8 signals, and normalized to the baseline average. […]

trypsin
neutrophil influx into the paw (mice; after 4 h): stimulated an influx of neutrophils
paw thickness after intraplantar protease (mice): increased paw thickness
PAR2-RLuc8/βARR2-YFP BRET (PAR2-RLuc8/βARR2-YFP): increased

NE: protease (elastase) activating PAR2 by biased mechanisms
paw thickness after intraplantar protease (mice): increased paw thickness
PAR2-RLuc8/βARR2-YFP BRET (PAR2-RLuc8/βARR2-YFP): not
